# Assay results as given in ChEMBL document CHEMBL2021836, “Medicinal chemistry approaches to avoid aldehyde oxidase metabolism” (Bioorg Med Chem Lett, 2012).
# Assays:
# [1] = Intrinsic clearance in human liver microsomes; assay type: ADME, Microsome; settings: read-out: CLH
# [2] = Intrinsic clearance in rat liver microsomes; assay type: ADME, Microsome; settings: read-out: CLH
# [3] = Intrinsic clearance in human cytosol after 45 mins by LC/MS analysis; assay type: ADME
# [4] = Intrinsic clearance in rat cytosol after 45 mins by LC/MS analysis; assay type: ADME
# [5] = target: T1, Toll-like receptor 7 (Homo sapiens) (UniProt Q9NYK1); assay: Agonist activity at human TLR7 expressed in human PBMCs assessed as reduction in HCV replicon level after 48 hrs by Bright Glo luciferase reporter gene assay; assay type: functional
# T1 sequence (whole entry): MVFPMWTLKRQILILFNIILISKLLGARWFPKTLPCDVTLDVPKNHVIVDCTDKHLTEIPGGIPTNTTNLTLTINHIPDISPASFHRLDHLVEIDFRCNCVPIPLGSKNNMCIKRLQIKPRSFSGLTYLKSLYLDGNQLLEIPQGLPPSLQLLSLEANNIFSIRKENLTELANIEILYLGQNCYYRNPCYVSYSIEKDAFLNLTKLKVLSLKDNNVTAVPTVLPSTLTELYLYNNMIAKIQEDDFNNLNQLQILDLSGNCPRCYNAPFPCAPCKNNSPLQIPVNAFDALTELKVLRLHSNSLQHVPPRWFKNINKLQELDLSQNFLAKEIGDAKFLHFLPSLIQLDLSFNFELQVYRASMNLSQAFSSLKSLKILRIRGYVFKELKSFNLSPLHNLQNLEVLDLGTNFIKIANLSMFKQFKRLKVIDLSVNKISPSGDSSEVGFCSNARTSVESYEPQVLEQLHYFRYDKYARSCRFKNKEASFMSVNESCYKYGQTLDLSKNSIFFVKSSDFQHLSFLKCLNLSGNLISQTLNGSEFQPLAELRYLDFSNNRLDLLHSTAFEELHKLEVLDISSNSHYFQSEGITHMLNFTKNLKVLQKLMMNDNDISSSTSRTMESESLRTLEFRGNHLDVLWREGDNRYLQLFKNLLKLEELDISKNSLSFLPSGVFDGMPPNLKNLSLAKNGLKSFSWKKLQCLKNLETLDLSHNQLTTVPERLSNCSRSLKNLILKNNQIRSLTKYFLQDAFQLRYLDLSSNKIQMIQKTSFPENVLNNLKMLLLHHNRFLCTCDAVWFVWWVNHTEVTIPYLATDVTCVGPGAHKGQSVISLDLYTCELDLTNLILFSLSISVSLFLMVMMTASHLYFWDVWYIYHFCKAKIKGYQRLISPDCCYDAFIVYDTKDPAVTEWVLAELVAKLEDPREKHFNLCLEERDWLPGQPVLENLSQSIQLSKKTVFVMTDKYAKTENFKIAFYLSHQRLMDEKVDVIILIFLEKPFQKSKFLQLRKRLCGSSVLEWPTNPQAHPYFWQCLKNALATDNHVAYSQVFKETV
Compound,microsomal CLint [1] [µL/min/mg],microsomal CLint [2] [µL/min/mg],microsomal CLint [3] [µL/min/mg],microsomal CLint [4] [µL/min/mg],Activity [5] [nM]
Cc1nc(Cn2c(=O)[nH]c3c(N)nc(C(F)(F)F)cc32)co1,< 8,< 10,< 1,< 1,
CCc1coc(-c2cc3c([nH]c(=O)n3Cc3ccc(C)nc3)c(N)n2)n1,,,,,116
Nc1nc(C(F)(F)F)cc2c1[nH]c(=O)n2Cc1ccc(N2CCOCC2)nc1,,,,,32
Cc1cc(Cn2c(=O)[nH]c3c(N)nc(C(F)(F)F)cc32)no1,< 8,< 9,< 1,< 1,
Cc1nc(Cn2c(=O)[nH]c3c(N)nc(C(F)(F)F)cc32)cs1,< 7,< 10,< 1,< 1,

# Second part, the compound after the results:
microsomal CLint [1] [µL/min/mg],microsomal CLint [2] [µL/min/mg],microsomal CLint [3] [µL/min/mg],microsomal CLint [4] [µL/min/mg],Activity [5] [nM],Compound
,,,,43,Nc1ccc(Cn2c(=O)[nH]c3c(N)nc(C(F)(F)F)cc32)cn1
,,,,75,Nc1nc(C(F)(F)F)cc2c1[nH]c(=O)n2Cc1ccc(C(F)(F)F)nc1
,,,,74,COc1ccc(Cn2c(=O)[nH]c3c(N)nc(C(F)(F)F)cc32)cn1
,,,,122,Nc1nc(C(F)(F)F)cc2c1[nH]c(=O)n2Cc1ccc(NCC2CC2)nc1
